For assay [1], the system named is A549 human lung cells infected with P. aeruginosa PA14. Description: A549 human lung cell infection (propidium iodide uptake). Particulars: wild-type and lasR mutant strains; 100 μM compound. The class given is cell-based. On the procedure: Methods. Human A549 cells were grown in CellStar tissue culture flasks. Prior to infection, the A549 cells were treated with trypsin-EDTA (CellGro), split, counted, and aliquotted into 96 well plates at 20,000 mammalian cells/well (cell counts were estimated using Trypan Blue (CellGro) exclusion). Cells were grown for 20 hr at 37° C. in DMEM (Invitrogen). Cells were washed 3× with warm PBS (Gibco). 100 μL of “master mix” was added to each well for each condition. Master mix contained 1 mL pre-warmed-PBS, 5 μL of 2 mg/mL propidium iodide (Bioprobes), 1 μL of a 100 mM inhibitor stock or DMSO, and 10 μL of OD600=2 P. aeruginosa PA14 grown in the presence of mBTL or DMSO. Infections were monitored using an EnVision plate reader every 2 hr with the RFP filter supplied by GE.

Assay [2] relates to wild-type P. aeruginosa PA14. Description: microbe, parasite or virus in culture. It counts as cell-based. In a few lines: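 PA14 cultures diluted 1:1000, grown aerobically 17 h at 37° C with shaking with compound at 100 μM (end point) or 200 nM–200 μM (titration). Pyocyanin in filtered cell-free fluid read at 695 nm; efficacy 0% at WT level, 100% at medium background; IC50 from variable-slope sigmoidal fit.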

The test system of the next assay is P. aeruginosa PA14. Description: Static culture biofilm thickness by confocal microscopy. It counts as cell-based. Here is the method:
Static culture. Methods. Overnight P. aeruginosa cultures were back-diluted 1:1000 into tryptone broth with 100 μM mBTL, or an equivalent concentration of DMSO, and grown to mid-logarithmic phase (OD600=0.5). A 96-well plate with glass bottom (Thermo Fisher), which was filled with 200 μL of tryptone broth containing 100 μM mBTL or DMSO, was then inoculated with 2 μL of the mid-logarithmic culture. The 96-well plates were incubated for 24 h, prior to adding 5 μM SYTO 9 nucleic acid stain (Invitrogen). Biofilm thickness was measured using confocal microscopy (Nikon).

The next assay deals with T1, LasR (Pseudomonas aeruginosa, UniProt P25084).
T1 construct: expressed in transfected cells; host or cells: E. coli BL21-Gold (DE3) carrying pET23b-lasR
The experiment in a line: LasR-GFP assay (rsaL-gfp reporter in recombinant E. coli). The class given is cell-based, P. aeruginosa. Here is the method:
Methods. The LasR-GFP assays were performed in E. coli strain BL21 DE3 Gold (Agilent) carrying pET23b (Novagen) containing lasR (maintained with 100 μg/mL ampicillin) and carrying plasmid pEVS141 (31) containing the rsaL promoter driving expression of gfp (maintained with […] of kanamycin.) The RhlR-GFP assays were performed in E. coli strain BL21 DE3 Gold (Agilent) carrying pET23b (Novagen) containing rhlR (maintained with 100 μg/mL ampicillin) and carrying plasmid pEVS141 containing the rhlA promoter driving expression of gfp (maintained with 50 μg/mL of kanamycin.) These E. coli strains were grown overnight and subcultured into fresh medium with appropriate antibiotics at a 1:100 dilution and grown shaking for 8 hr at 37° C. for the LasR-GFP strain and 12 hr for the RhlR-GFP construct. 50 nM 3OC12-HSL or 20 μM C4-HSL was added to the LasR-GFP and RhlR-GFP preparations, respectively. Compounds were tested at 1 mM for antagonism and at 100 nM or 20 μM for agonism. These concentrations were chosen for agonism studies to match the concentrations of autoinducers used in the experiments. For antagonism studies, the EC95 concentration was used for each receptor. GFP was measured on an Envision plate reader.
The LasR-GFP assays were performed in E. coli strain BL21 DE3 Gold (Agilent) carrying pET23b (Novagen) containing lasR (maintained with 100 μg/mL ampicillin) and carrying plasmid pEVS141 (31) containing the rsaL promoter driving expression of gfp (maintained with 50 μg/mL of kanamycin.) The RhlR-GFP assays were performed in E. coli strain BL21 DE3 Gold (Agilent) carrying pET23b (Novagen) containing rhlR (maintained with 100 μg/mL ampicillin) and carrying plasmid pEVS141 (31) containing the rhlA promoter driving expression of gfp (maintained with 50 μg/mL of kanamycin.) These E. coli strains were grown overnight and subcultured into fresh medium with appropriate antibiotics at a 1:100 dilution and grown shaking for 8 hr at 37° C. for the LasR-GFP strain and 12 hr for the RhlR-GFP construct. 50 nM 3OC12-HSL or 20 μM C4-HSL was added to the LasR-GFP and RhlR-GFP preparations, respectively. Compounds were tested at 1 mM for antagonism and at 100 nM or 20 μM for agonism. These concentrations were chosen for agonism studies to match the concentrations of autoinducers used in our experiments. For antagonism studies, we used the EC95 concentration for each receptor. GFP was measured on an Envision plate reader.

pIC50: −log10 of the molar value.

T1 sequence (P25084 whole entry): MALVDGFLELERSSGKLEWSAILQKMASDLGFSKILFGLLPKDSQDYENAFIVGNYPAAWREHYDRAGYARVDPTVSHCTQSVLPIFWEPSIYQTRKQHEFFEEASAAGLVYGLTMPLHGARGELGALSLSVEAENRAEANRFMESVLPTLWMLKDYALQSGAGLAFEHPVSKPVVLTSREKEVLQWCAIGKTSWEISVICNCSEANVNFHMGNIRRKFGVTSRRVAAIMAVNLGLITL

On to meta-bromothiolactone [mBTL], for which the “killing of A549 cells by P. aeruginosa” value in assay [1] is recorded as “reduces killing”. Besides, in assay [2] (WT P. aeruginosa PA14, 17 hr growth, titration, read-out: IC50 for inhibition of pyocyanin production), the pIC50 is 5.10. The “inhibition of pyocyanin production (in words)” value in assay [2] (wild-type P. aeruginosa PA14, end point assays at 100 μM) was “potent inhibition of pyocyanin”. Besides, the average biofilm height in the assay with P. aeruginosa PA14 (lasR null strain, 100 μM mBTL (untreated 15.7+/−4.9)) was 6.6+/−2.3 μm; with P. aeruginosa PA14 (lasR, rhlR double null strain, 100 μM mBTL (untreated 11.9+/−5.5)), 16.2+/−5.9 μm; in the assay with P. aeruginosa PA14 (rhlR null strain, 100 μM mBTL (untreated 25+/−10.6)) it was 22.1+/−7.5 μm; with P. aeruginosa PA14 (wild-type, 100 μM mBTL, 24 h (untreated 27.5+/−11.5)), 10+/−4 μm. Besides, the “inhibition of LasR activation of rsaL-gfp (antagonism)” value at LasR (mBTL at 1 mM, 3OC12-HSL at EC95) is 22%. At LasR (no autoinducer, compound at 100 nM), the “LasR partial agonism (gfp expression, cognate autoinducer = 100%)” value is 72%.

What is called pIC50 is the IC50 on a negative log10 scale, so that one unit is a factor of ten.

(Values after US9751851B2, “Molecules and compositions that inhibit gram negative bacteria and their uses” (THE TRUSTEES OF PRINCETON UNIVERSITY, priority 2013, dated 2017).)
